Measurements published in EP3698805A1, “FRACTION OFZANTHOXYLUM PIPERITUM” (Mecox Curemed Co., Ltd., priority 2017, dated 2019).
Where “and” joins values, the source holds several entries; their conditions need not be identical. Equal entries are not always repeated. Where two headings read alike, the source gives them in different places.

Key:
[1] = tested on: acetic acid-induced pain model; test: acetic acid-induced pain model (writhing syndrome test); type: in vivo, ICR mice; conditions: for pain inhibition effect: FIG. 3, compounds isolated from ZPE6A or ZPE6C fraction; for Pain inhibition percentage (%)(50 mg/kg, po): active ingredients
Method: The acetic acid-induced writhing syndrome test is an animal model for determining analgesic effects. It is mainly used to test the effect of analgesics on the peripheral nervous system. The experimental animals used herein were 5-week-old ICR mice purchased from Central Laboratory Animals (Seoul) and acclimated in a breeding room maintained at a humidity of 50% and a temperature of 24 to 26°C for one week. Feed and water were supplied for free intake. […] The test substance was orally administered 60 minutes before the induction of pain to determine the degree of analgesic effect.

[2] = tested on: mast cell RBL-2H3; test: inhibition of mast cell degranulation (β-hexosaminidase secretion); type: cell-based; conditions: for inhibition at 25 µg/mL / inhibition at 100 µg/mL: Rattus norvegicus
Method: Inhibition of inflammation-promoting cytokines has been reported to inhibit autoimmune diseases such as atopy. Thus, in the present embodiment, the mast cell RBL-2H3 was treated with the Zanthoxylum piperitum leaf extract or active compounds (quercitrin, afzelin) to evaluate the secretion inhibition ability of β-hexosaminidase. That is, the effect of inhibiting mast cell degranulation by the Zanthoxylum piperitum leaf extract or the active compound (quercitrin, afzelin) was found.

[3] = tested on: pain response induced by formalin; test: formalin test; type: in vivo, rats; conditions: 100 mg/kg
Method: The formalin test is primarily used to measure the analgesic effects of drugs in chronic pain models, in which the pain stimulus and response are not temporary but persistent. The pain response induced by formalin includes phase 1 and phase 2, and these two phases can be distinguished pharmacologically. The test substance and acetaminophen or aspirin, as a positive control group, were orally administered 60 minutes before the induction of pain, 10% formalin was injected subcutaneously into the hind legs of rats, and the number of actions in response to pain was measured every 3 minutes. The action in response to pain was measured separately in phase 1 (0-12 minutes) and phase 2 (24-39 minutes).

[4] = tested on: collagen-induced arthritis animal model; test: collagen-induced arthritis animal model (clinical score, micro-CT); type: in vivo, DBA/1J mice; parameters: scale not given here
Method: As one of the methods for evaluating the therapeutic effect of rheumatoid arthritis, the antirheumatic efficacy of each test substance was measured in a collagen-induced arthritis animal model. The experimental animals herein used were 5-week-old DBA/1J mice purchased from Central Laboratory Animals (Seoul) and acclimated in a breeding room maintained at a humidity of 50% and a temperature of 24 to 26°C for one week. Feed and water were supplied for free intake. In order to induce arthritis, type 2 collagen and CFA (complete Freund's adjuvant) were mixed to obtain an emulsion. 200 µL of the emulsion was injected subcutaneously […] into the lower part of the tail 2 to 3 cm away from the torso of DBA/1J mice, and the same amount of the emulsion was secondarily injected in […] into the lower part of the tail in the same manner as in the primary injection 21 days after exposure to a primary antigen. A positive control group was orally administered with dexamethasone at a dose of 1 mg/kg from the 22nd day after primary antigen exposure, the group administered with the Zanthoxylum piperitum leaf extract was orally treated at 100 mg/kg for 3 weeks, rheumatoid arthritis lesions were visually observed and graded, and the arthritis alleviation efficacy was measured as a clinical score.

[5] = RBL-2H3, read-out: degranulation inhibitory activity compared to the ketotifen drug
[6] = individual animals No. 1-7, extract 100 mg/kg oral 3 weeks, dexamethasone 1 mg/kg oral, listed as Positive control group

Row | SMILES | pain inhibition effect [1] | Effect of inhibiting degranulation (% inhibition) ([2]; treatment amount 12.5 µg/mL) | Effect of inhibiting degranulation (% inhibition) ([2]; treatment amount 25 µg/mL) | Effect of inhibiting degranulation (% inhibition) ([2]; treatment amount 50 µg/mL) | Effect of inhibiting degranulation (% inhibition) ([2]; treatment amount 100 µg/mL) | also measured
1 | O=C(O)c1ccccc1C(=O)O [1,2-benzenedicarboxylic acid] | excellent pain inhibition effects |  |  |  |  | 
2 | CC(=O)c1ccc(O)cc1 [4'-hydroxyacetophenone] | excellent pain inhibition effects |  |  |  |  | 
3 | C[C@@H]1O[C@@H](Oc2c(-c3ccc(O)c(O)c3)oc3cc(O)cc(O)c3c2=O)[C@H](O)[C@H](O)[C@H]1O [Quercitrin, quercetin-3-O-alpha-L-rhamnoside] |  | 6.3 ± 0.13 % inhibition | 14.3 ± 0.11 % inhibition | 19.8 ± 0.28 % inhibition | 22.2 ± 0.32 % inhibition | Pain inhibition percentage (%)(50 mg/kg, po) [1]: 69.2%; inhibition at 25 µg/mL [2, 5]: ~70%; inhibition at 100 µg/mL [2, 5]: ~50%
4 | CC(C)(C)c1ccc(O)c(C(C)(C)C)c1 [2,4-di-tert-butylphenol] | excellent pain inhibition effects |  |  |  |  | 
5 | CC(=O)Nc1ccc(O)cc1 [Acetaminophen] |  |  |  |  |  | Inhibition (%) Phase 1 ([3]; phase 1 (0-12 minutes)): 35.2%; Inhibition (%) Phase 2 ([3]; phase 2 (24-39 minutes)): 41.7%
6 | CN1CCC(=C2c3ccccc3CC(=O)c3sccc32)CC1 [Ketotifen] |  | 13.8 ± 0.88 % inhibition | 20.2 ± 0.84 % inhibition | 32.8 ± 1.04 % inhibition | 43.9 ± 1.45 % inhibition | 
7 | C[C@@H]1C[C@H]2[C@@H]3CCC4=CC(=O)C=C[C@]4(C)[C@@]3(F)[C@@H](O)C[C@]2(C)[C@@]1(O)C(=O)CO [dexamethasone] |  |  |  |  |  | average score ([4]; group mean of total clinical score, control group 11.8): 6.3; visual clinical score Right back leg ([4]; individual animals No. 1-7, extract 100 mg/kg oral 3 weeks, dexamethasone 1 mg/kg oral): 1; visual clinical score Left back leg [4, 6]: 1 (5×) and 2 (2×); visual clinical score Left front leg [4, 6]: 3 (2×) and 2 (3×) and 1 (2×); visual clinical score Right front leg [4, 6]: 3 (2×) and 2 (3×) and 1 (2×); visual clinical score Total [4, 6]: 8 and 7 (2×) and 6 (2×) and 5 (2×)
8 | C[C@@H]1O[C@@H](Oc2c(-c3ccc(O)cc3)oc3cc(O)cc(O)c3c2=O)[C@H](O)[C@H](O)[C@H]1O [Afzelin, camphorol-3-O-alpha-L-rhamnoside] |  | 25.1 ± 1.68 % inhibition | 39.4 ± 1.06 % inhibition | 41.3 ± 1.67 % inhibition | 40.9 ± 0.98 % inhibition | Pain inhibition percentage (%)(50 mg/kg, po) [1]: 93.6%; inhibition at 25 µg/mL ([2]; RBL-2H3, treatment dose of 25 µg/mL, read-out: degranulation inhibitory activity compared to the ketotifen drug): ~195%; inhibition at 100 µg/mL ([2]; RBL-2H3, treatment dose of 100 µg/mL, read-out: degranulation inhibitory activity compared to the ketotifen drug): ~93%
